In patent US20120302573A1, “METHODS OF INHIBITING PRO MATRIX METALLOPROTEINASE ACTIVATION” (priority 2011, published 2012) one finds Kd and IC50 data, which are given here for 18 compounds.

The target in test [1] is T1, proMMP13(1-268) (SEQ ID NO:7) (Homo sapiens, UniProt P45452).
T1 construct: 6x-histidine tag (C); made in house; host or cells: HEK293
Description: ThermoFluor binding assay with proMMP13(1-268). The protocol:
The ThermoFluor® (TF) assay is a 384-well plate-based binding assay that measures thermal stability of proteins (Biomol Screen 2001, 6, 429-40; Biochemistry 2005, 44, 5258-66). The experiments were carried out using instruments available from Johnson & Johnson Pharmaceutical Research & Development, LLC. TF dye used in all experiments was […] (1,8-ANS) (Invitrogen: A-47).
Compounds were arranged in a pre-dispensed plate (Greiner Bio-one: 781280), wherein compounds were serially diluted in 100% DMSO across 11 columns within a series. Columns 12 and 24 were used as DMSO reference and contained no compound. For multiple compound concentration-response experiments, the compound aliquots ([…]) were robotically predispensed directly into black 384-well polypropylene PCR microplates (Abgene: TF-0384/k) using a Cartesian Hummingbird liquid handler (DigiLab, Holliston, Mass.). Following compound dispense, protein and dye solutions were added to achieve the final assay volume of 3 μL. The assay solutions were overlayed with 1 μL of silicone oil (Fluka, type DC 200: 85411) to prevent evaporation.
Assay plates were robotically loaded onto a thermostatically controlled PCR-type thermal block and then heated from 40 to 90° C. at a ramp-rate of 1° C./min for all experiments. Fluorescence was measured by continuous illumination with UV light (Hamamatsu LC6) supplied via fiber optics and filtered through a band-pass filter (380-400 nm; >6 OD cutoff). Fluorescence emission of the entire 384-well plate was detected by measuring light intensity using a CCD camera (Sensys, Roper Scientific) filtered to detect 500±25 nm, resulting in simultaneous and independent readings of all 384 wells. A single image with 20-sec exposure time was collected at each temperature, and the sum of the pixel intensity in a given area of the assay plate was recorded vs temperature and fit to standard equations to yield the Tm (J Biomol Screen 2001, 6, 429-40).
(§1) Thermodynamic parameters necessary for fitting compound binding for each proMMP were estimated by differential scanning calorimetry (DSC) and from ThermoFluor® data. The heat capacity of unfolding for each protein was estimated from the molecular weight and from ThermoFluor® dosing data.
The proMMP13(1-268) (SEQ ID NO:7) protein sample preparations included a desalting buffer exchange step via a PD-10 gravity column (GE Healthcare). The desalting buffer exchange was performed prior to diluting the protein to the final assay concentration of 3.5 μM. The concentration of proMMP13(1-268) (SEQ ID NO:7) was estimated spectrophotometrically based on a calculated extinction coefficient of ε280=37000 M^−1 cm^−1, a calculated molecular weight of 30.8 kDa, and calculated pI of 5.33. ThermoFluor® reference conditions were defined as follows: 100 μg/mL proMMP13(1-268) (SEQ ID NO:7), 25 μM 1,8-ANS, pH 7.0 Buffer (50 mM HEPES pH 7.0, 100 mM NaCl, 0.001% Tween-20, 2.5 mM MgCl2, 300 μM CaCl2). The thermodynamic parameters for proMMP13(1-268) (SEQ ID NO:7) are as follows: Tm (° C.)=67 (+/−0.1), ΔUH(Tm) (cal mol^−1)=107000(+/−5000), ΔUS(Tm) (cal mol^−1 K^−1)=318, ΔUCp (cal mol^−1 K^−1)=2600.
(Differential scanning fluorimetry follows unfolding on heating by fluorescence.)

The target of test [2] is T2, proMMP9(20-445;ΔFnII) (SEQ ID NO:6) (Homo sapiens, UniProt P14780, DEL216-390).
T2 construct: amino acid pairs including: 29-215/391-444, 67-215/391-444, and 20-215/391-445, respectively; start methionine (N); made in house; host or cells: E. coli BL21(DE3) RIL
T2 sequence (P14780 with tags, fused parts or gaps DEL216-390): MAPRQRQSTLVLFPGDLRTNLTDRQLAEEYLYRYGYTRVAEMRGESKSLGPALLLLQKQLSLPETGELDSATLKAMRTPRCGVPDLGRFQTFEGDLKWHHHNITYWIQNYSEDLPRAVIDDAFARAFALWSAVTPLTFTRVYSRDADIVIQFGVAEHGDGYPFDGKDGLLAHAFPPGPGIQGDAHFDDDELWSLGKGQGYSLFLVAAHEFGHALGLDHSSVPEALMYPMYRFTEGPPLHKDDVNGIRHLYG
Description: ThermoFluor binding assay with proMMP9(20-445;ΔFnII). As for the experimental part:
(§2) The experiments were carried out using instruments available from Johnson & Johnson Pharmaceutical Research & Development, LLC. TF dye used in all experiments was […] (1,8-ANS) (Invitrogen: A-47).
(§3) Columns 12 and 24 were used as DMSO reference and contained no compound. […] Following compound dispense, protein and dye solutions were added to achieve the final assay volume of 3 μL.
(§4) Assay plates were robotically loaded onto a thermostatically controlled PCR-type thermal block and then heated from 40 to 90° C. at a ramp-rate of 1° C./min for all experiments. Fluorescence was measured by continuous illumination with UV light (Hamamatsu LC6) supplied via fiber optics and filtered through a band-pass filter (380-400 nm; >6 OD cutoff). Fluorescence emission of the entire 384-well plate was detected by measuring light intensity using a CCD camera (Sensys, Roper Scientific) filtered to detect 500±25 nm, resulting in simultaneous and independent readings of all 384 wells.
as §1
The protein sample preparations included a desalting buffer exchange step via a PD-10 gravity column (GE Healthcare).

Test [3] deals with T3, proMMP9(67-444;ΔFnII) (SEQ ID NO:5) (Homo sapiens, UniProt P14780, DEL216-390).
T3 construct: amino acid pairs including: 29-215/391-444, 67-215/391-444, and 20-215/391-445, respectively; start methionine (N); made in house; host or cells: E. coli BL21(DE3) RIL
T3 sequence (P14780 with tags, fused parts or gaps DEL216-390): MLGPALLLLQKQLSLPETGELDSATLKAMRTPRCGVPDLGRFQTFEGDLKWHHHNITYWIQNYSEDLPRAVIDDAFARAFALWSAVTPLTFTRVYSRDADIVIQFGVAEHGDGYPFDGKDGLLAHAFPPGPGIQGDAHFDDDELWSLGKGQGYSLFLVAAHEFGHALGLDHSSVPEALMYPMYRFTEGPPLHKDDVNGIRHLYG
The experiment in a line: ThermoFluor binding assay with proMMP9(67-444;ΔFnII). The protocol: as §2, §3, §4, §1
The protein sample preparations had to include a desalting buffer exchange step via a PD-10 gravity column (GE Healthcare).

For test [4], the target named is full-length proMMP9(1-707) activation by catalytic MMP3 (Homo sapiens, UniProt P14780, R574P). The experiment in a line: ProMMP9/MMP3 DQ Gelatin Activation Assay.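 Further: readout is fluorescence of quenched fluorescein gelatin cut by activated MMP9, 30 min activation at 37 °C, inhibition relative to DMSO-only controls with EDTA as blank.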 Format: biochemical. Details: made in house; host or cells: COS-1 (proMMP9); E. coli (MMP3). Particulars: proMMP9 from COS-1 cells; read-out: ProMMP9/MMP3 DQ gel, IC50.
full-length proMMP9(1-707) activation by catalytic MMP3, sequence (P14780 20-707 R574P): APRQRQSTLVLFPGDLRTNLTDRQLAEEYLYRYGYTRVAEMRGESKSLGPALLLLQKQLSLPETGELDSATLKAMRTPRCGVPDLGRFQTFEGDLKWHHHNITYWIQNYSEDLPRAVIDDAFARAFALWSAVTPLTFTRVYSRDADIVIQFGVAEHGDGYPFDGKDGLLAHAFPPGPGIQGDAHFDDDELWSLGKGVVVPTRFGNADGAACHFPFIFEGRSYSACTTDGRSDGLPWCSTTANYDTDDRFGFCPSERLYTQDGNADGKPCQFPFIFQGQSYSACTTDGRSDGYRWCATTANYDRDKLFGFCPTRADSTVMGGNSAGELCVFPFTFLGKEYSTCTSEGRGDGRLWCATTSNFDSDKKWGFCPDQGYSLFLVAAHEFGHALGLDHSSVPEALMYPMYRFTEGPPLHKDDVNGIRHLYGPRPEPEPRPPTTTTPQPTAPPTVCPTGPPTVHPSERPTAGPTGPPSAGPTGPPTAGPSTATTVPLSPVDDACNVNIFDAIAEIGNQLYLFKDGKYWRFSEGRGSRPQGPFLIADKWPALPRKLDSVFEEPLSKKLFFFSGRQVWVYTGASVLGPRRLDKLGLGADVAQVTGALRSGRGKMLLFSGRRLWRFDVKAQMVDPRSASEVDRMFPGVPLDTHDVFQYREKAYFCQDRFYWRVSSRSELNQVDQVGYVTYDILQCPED

SMILES strings stand for the structures. Counter-ions that a name gives are not always drawn.

As to `COc1c(Cl)cccc1Nc1nc(-c2sc(N)nc2C)cs1` [Example 7, N^2-(3-Chloro-2-methoxy-phenyl)-4′-methyl-[4,5′]bithiazolyl-2,2′-diamine.HBr], the Kd – broadly, a measure of binding affinity in units of concentration – in test [1] was 44.6 µM; in test [2] it was 12.9 µM; in test [3] it was 8.84 µM.

On to `Cc1nc(N)sc1-c1csc(Nc2cccc(C(N)=O)c2)n1` [Example 8, 3-(2′-Amino-4′-methyl-[4,5′]bithiazolyl-2-ylamino)-benzamide.HBr], for which the Kd is 26.9 µM in test [1], 10.8 µM in test [2] and 30.2 µM in test [3].

In the case of `COc1ccccc1Nc1nc(-c2cnc(N)s2)cs1` [Example 10, N^2-(2-Methoxy-phenyl)-[4,5′]bithiazolyl-2,2′-diamine.HBr], the figures for the Kd in test [1], in test [2] and in test [3] were 55.9 µM, 9.61 µM and 3.67 µM, respectively.

As for `CCc1nc(N)sc1-c1nc(Nc2ccccc2OC)sc1C` [Example 11, 4′-Ethyl-N^2-(2-methoxy-phenyl)-5-methyl-[4,5′]bithiazolyl-2,2′-diamine], the values for the Kd in test [1], in test [2] and in test [3] were 58.9 µM, above 95 µM and 19.9 µM, respectively.

For `CCc1nc(N)sc1-c1nc(Nc2cc(Cl)ccc2OC)sc1C` [Example 17, N^2-(5-Chloro-2-methoxy-phenyl)-4′-ethyl-5-methyl-[4,5′]bithiazolyl-2,2′-diamine], the Kd in test [1] was determined as 10.7 µM; in test [2] it was 15.6 µM; in test [3], 3.99 µM.

As for `COc1ccccc1Nc1nc(-c2sc(N)nc2C(F)(F)F)cs1` [Example 22, N^2-(2-Methoxy-phenyl)-4′-trifluoromethyl-[4,5′]bithiazolyl-2,2′-diamine.TFA], the results for the Kd in test [1], in test [2] and in test [3] were 44.2 µM, 12.3 µM and 2.32 µM, respectively.

In the case of `COc1ccccc1Nc1nc(-c2sc(-c3cnccn3)nc2C)cs1` [Example 26, (2-Methoxy-phenyl)-(4′-methyl-2′-pyrazin-2-yl-[4,5′]bithiazolyl-2-yl)-amine.TFA], the equilibrium dissociation constant (Kd) in test [1] is 4.78 µM; in test [2], above 95 µM; in test [3], above 95 µM. For the same compound, in test [4], the IC50 was 13.8 µM.

On to `COc1ccc(-c2csc(Nc3ccccc3OC)n2)cn1` [Example 28, (2-Methoxy-phenyl)-[4-(6-methoxy-pyridin-3-yl)-thiazol-2-yl]-amine.TFA], for which the values for the Kd in test [1], in test [2] and in test [3] were above 95 µM, above 65 µM and 22.6 µM, respectively. Moreover, the IC50 in test [4] amounted to 15.6 µM.

In the case of `COc1ccccc1Nc1nc(-c2cc(C)ccn2)cs1` [Example 30, (2-Methoxy-phenyl)-[4-(4-methyl-pyridin-2-yl)-thiazol-2-yl]-amine.TFA], the dissociation constant (Kd) was 42 µM in test [1], above 95 µM in test [2] and 13.8 µM in test [3].

Turning to `COc1ccccc1Nc1nc(-c2sc(NC(C)C)nc2C)cs1` [Example 37, N^2′-Isopropyl-N^2-(2-methoxy-phenyl)-4′-methyl-[4,5′]bithiazolyl-2,2′-diamine.HCl], the Kd is above 95 µM in test [1], 5.16 µM in test [2] and 4.48 µM in test [3]. In test [4], the IC50 is above 20 µM.

As to `COc1ccccc1Nc1nc(-c2ccc(-c3ccccc3)s2)cs1` [Example 43, (2-Methoxy-phenyl)-[4-(5-phenyl-thiophen-2-yl)-thiazol-2-yl]-amine.TFA], the values for the Kd in test [1], in test [2] and in test [3] were 20.4 µM, 76.7 µM and 13.1 µM, respectively. Also, in test [4], the IC50 was above 20 µM.

On to `COc1ccccc1Nc1nc(-c2oc(C)nc2C)cs1` [Example 44, [4-(2,4-Dimethyl-oxazol-5-yl)-thiazol-2-yl]-(2-methoxy-phenyl)-amine.TFA], for which the Kd is above 95 µM in test [1], above 95 µM in test [2] and 44.7 µM in test [3]. The IC50 in test [4] was 11.9 µM.

Turning to `COc1ccccc1Nc1nc(-c2c(C)nc3ccccn23)cs1` [Example 46, (2-Methoxy-phenyl)-[4-(2-methyl-imidazo[1,2-a]pyridin-3-yl)-thiazol-2-yl]-amine], the Kd amounted to 16 µM in test [1], 65.2 µM in test [2] and 36.7 µM in test [3]. In addition, the IC50 in test [4] stood at 8.6 µM.

For the compound `CCOc1ccccc1Nc1nc(-c2sc(NC(=O)CC)nc2C)cs1` [Example 47, N-[2-(2-Ethoxy-phenylamino)-4′-methyl-[4,5′]bithiazolyl-2′-yl]-propionamide], the Kd in test [1] was above 95 µM; in test [2], above 90 µM; in test [3], 40.9 µM. Also, the IC50 in test [4] is 5.2 µM.

`CCOc1ccccc1Nc1nc(-c2c(C)nc3ncccn23)cs1` [Example 52, (2-Ethoxy-phenyl)-[4-(2-methyl-imidazo[1,2-a]pyrimidin-3-yl)-thiazol-2-yl]-amine]: the Kd in test [1] was determined as 13.2 µM; in test [2], 7.27 µM; in test [3], 9.09 µM. Besides, the IC50 in test [4] was determined as 3.3 µM.

On to `CCOc1ccccc1Nc1nc(-c2cccnc2)cs1` [Example 53, (2-Ethoxy-phenyl)-(4-pyridin-3-yl-thiazol-2-yl)-amine], for which the Kd is above 95 µM in test [1], 28.6 µM in test [2] and 15.1 µM in test [3]. Besides, the IC50 in test [4] stood at 4.7 µM.

With `COc1ccccc1Nc1nc(-c2cccnc2)cs1` [Example 55, (2-Methoxy-phenyl)-(4-pyridin-3-yl-thiazol-2-yl)-amine], the results for the Kd in test [1], in test [2] and in test [3] were above 95 µM, above 95 µM and 22.5 µM, respectively. Further, the IC50 in test [4] came to 13 µM.

Consider `CCC(=O)Nc1nc(C)c(-c2csc(Nc3ccccc3OC)n2)s1` [Example 58, N-[2-(2-Methoxy-phenylamino)-4′-methyl-[4,5′]bithiazolyl-2′-yl]-propionamide], for which the Kd in test [1] is above 95 µM; in test [2], 13.4 µM; in test [3], 3.01 µM. Besides, the IC50 in test [4] was determined as 2.6 µM.
